{"source": "patent US11815508B2", "about": "“Dynamic BH3 profiling” (Dana-Farber Cancer Institute, Inc., priority 2012, dated 2023)", "format_in_all_cases": "cell-based, human", "key": {"K562 [1]": {"system": "K562", "experiment": "Dynamic BH3 profiling, K562 cells", "details": "for change in depolarization caused by the BIM BH3 peptide following drug treatment: drug exposure 16 hours", "procedure": "(§1) The change in depolarization caused by the BIM BH3 peptide following drug treatment is shown. […] Imatinib is a positive control.\n(§2) In various methods, sensitivity of a cell to an agent is determined. The methods include contacting a test cell with a test agent. Cell sensitivity to the test agent is determined by contacting the test cell or test cellular component (e.g., mitochondria) exposed to the test agent with standardized concentration of a panel of BH3 domain peptide from the pro-apoptotic BCL-2 family.\n(§3) The cell or cellular component is a cancer cell or a cell that is suspected of being cancerous. The cell is permeabilized to permit the BH3 peptides access to the mitochondria. Cells are permeabilized by methods known in the art. For example, the cell are permeabilized by contacting the cell with digitonin, or other art-recognized detergents and cell-permeabilization agents.\n(§4) After the cells are permeabilized the cells are treated with the BH3 peptides or test agents. After the cell is treated, mitochondrial outer membrane permeabilization is measured. Outer membrane permeabilization is measured by a number of methods. For example outer membrane permeabilization is measured by loss of mitochondrial membrane potential. Loss of mitochondrial membrane potential is measured for example by treating the cells with a potentiometric or radiometric dye."}, "K562 [2]": {"system": "K562", "experiment": "Cell death by Annexin V/PI, K562 cells", "details": "drug exposure 72 hours"}, "Ku812 [3]": {"system": "Ku812", "experiment": "Dynamic BH3 profiling, Ku812 cells", "procedure": "as §1, §2, §3, §4"}, "Ku812 [4]": {"system": "Ku812", "experiment": "Cell death, Ku812 cells"}, "PC9WZR": {"system": "PC9WZR", "experiment": "Dynamic BH3 profiling, PC9GR resistant to WZ4002", "details": "gefitinib 1 μM, WZ4002 100 nM, 16 hours; BH3 peptide Bim at low concentrations", "procedure": "(§5) In various methods, sensitivity of a cell to an agent is determined. The methods include contacting a test cell with a test agent. Cell sensitivity to the test agent is determined by contacting the test cell or test cellular component (e.g., mitochondria) exposed to the test agent with standardized concentration of a panel of BH3 domain peptide from the pro-apoptotic BCL-2 family. […] The cell or cellular component is a cancer cell or a cell that is suspected of being cancerous. The cell is permeabilized to permit the BH3 peptides access to the mitochondria. Cells are permeabilized by methods known in the art. For example, the cell are permeabilized by contacting the cell with digitonin, or other art-recognized detergents and cell-permeabilization agents. After the cells are permeabilized the cells are treated with the BH3 peptides or test agents. After the cell is treated, mitochondrial outer membrane permeabilization is measured. Outer membrane permeabilization is measured by a number of methods. For example outer membrane permeabilization is measured by loss of mitochondrial membrane potential. Loss of mitochondrial membrane potential is measured for example by treating the cells with a potentiometric or radiometric dye. Three different cell lines were used: PC9, PC9 gefitinib resistant (PC9GR, including the mutation T790M) and PC9GR resistant to WZ4002 (PC9WZR). […]"}, "PC9GR": {"system": "PC9GR", "experiment": "Dynamic BH3 profiling, PC9 gefitinib resistant", "details": "gefitinib 1 μM, WZ4002 100 nM, 16 hours; BH3 peptide Bim at low concentrations", "procedure": "as §5"}, "PC9": {"system": "PC9", "experiment": "Dynamic BH3 profiling, NSCLC cell line PC9", "details": "gefitinib 1 μM, WZ4002 100 nM, 16 hours; BH3 peptide Bim at low concentrations", "procedure": "as §5"}, "SuDHL4 cell line": {"system": "SuDHL4 cell line", "experiment": "miBH3 profile of the SuDHL4 cell line", "details": "response to BH3 peptides", "procedure": "FIGS. 14A-14B are a series of bar graphs showing the correlation of miBH3 profiles with known profiles.\nDynamic BH3 profiling can be accomplished at the single cell level by immobilizing cells on a solid surface. Optionally the solid surface is polyamine or poly-lysine coated. Immobilized cells are permeabilized as described above. The cells are then contacted with BH3 peptides and/or test agents. After the cells have been treated for a predetermined period of time such as 45-90 minutes, the cells are fixed and permeabilized by methods known in the art. For example the cells are fixed with formaldehyde and further permeabilized with methanol or triton x-100. Outer membrane permeabilization is determined intracellular staining for molecules from the mitochondrial inter-membrane space and a mitrochondrial marker. Examples of molecules that can be measured include cytochrome c and SMAC/Diablo, Omi, adenylate kinase-2 or apoptotic-inducing factor (AIF). Mitochondrial markers include MnSOD. Stained cells can be counterstained with nuclear stains such as DAPI. Optionally other intracellular and extracellular markers can be measured. Analysis of the cells can be manually accomplished using a microscope or automated for example by using software such as Cellprofiler to locate nuclei.\nMicroBH3 (miBH3) is a BH3 profiling method where the measurement of the mitochondrial effect of BH3 peptides have on individual cells by microscopy. To accomplish this, cells are immobilized on polyamine or poly-lysine coated surfaces and treated with low concentrations of digitonin in a mitochondrial buffer to permeabilize the plasma membrane and grant access to the mitochondria without cell disruption. […] Fixed cells by this method can be readily stopped at the fixation step and can be analyzed weeks after acquisition as well as readily re-analyzed if needed."}}, "data": [{"compound": "Cn1c(=O)n(-c2ccc(C(C)(C)C#N)cc2)c2c3cc(-c4cnc5ccccc5c4)ccc3ncc21", "note": "[BEZ235]", "values": [{"measurement": "change in depolarization caused by the BIM BH3 peptide following drug treatment", "setting": "K562 [1]", "result": "significant changes"}, {"measurement": "cell death response (Annexin V/PI)", "setting": "K562 [2]", "result": "unexpected killing"}]}, {"compound": "Cc1sc2c(c1C)C(c1ccc(Cl)cc1)=N[C@@H](CC(=O)OC(C)(C)C)c1nnc(C)n1-2", "note": "[JQ1]", "values": [{"measurement": "priming by dynamic BH3 profiling", "setting": "Ku812 [3]; epigenetic modifying agents, imatinib positive control", "result": "increases priming"}, {"measurement": "cell death", "setting": "Ku812 [4]", "result": "induce cell death"}]}, {"compound": "COc1cc(N2CCC(N3CCN(C)CC3)CC2)ccc1Nc1ncc(Cl)c(Nc2ccccc2S(=O)(=O)C(C)C)n1", "note": "[TAE-684]", "values": [{"measurement": "change in depolarization caused by the BIM BH3 peptide following drug treatment", "setting": "K562 [1]", "result": "significant changes"}, {"measurement": "cell death response (Annexin V/PI)", "setting": "K562 [2]", "result": "unexpected killing"}]}, {"compound": "C=CC(=O)Nc1cccc(Oc2nc(Nc3ccc(N4CCN(C)CC4)cc3OC)ncc2Cl)c1", "note": "[WZ4002]", "values": [{"measurement": "sensitivity (change in priming) by dynamic BH3 profiling", "setting": "PC9WZR", "result": "insensitive"}, {"measurement": "sensitivity (change in priming) by dynamic BH3 profiling", "setting": "PC9GR", "result": "sensitive"}, {"measurement": "sensitivity (change in priming) by dynamic BH3 profiling", "setting": "PC9", "result": "sensitive"}]}, {"compound": "COc1cc2ncnc(Nc3ccc(F)c(Cl)c3)c2cc1OCCCN1CCOCC1", "note": "[gefitinib]", "values": [{"measurement": "sensitivity (change in priming) by dynamic BH3 profiling", "setting": "PC9WZR", "result": "insensitive"}, {"measurement": "sensitivity (change in priming) by dynamic BH3 profiling", "setting": "PC9GR", "result": "insensitive"}, {"measurement": "sensitivity (change in priming) by dynamic BH3 profiling", "setting": "PC9", "result": "sensitive"}]}, {"compound": "Cc1ccc(NC(=O)c2ccc(CN3CCN(C)CC3)cc2)cc1Nc1nccc(-c2cccnc2)n1", "note": "[imatinib]", "values": [{"measurement": "change in depolarization caused by the BIM BH3 peptide following drug treatment", "setting": "K562 [1]", "result": "significant changes"}, {"measurement": "priming, several BH3 peptides", "setting": "K562 [1]; imatinib 1 μM, 16 h and 8 h", "result": "increase in priming"}, {"measurement": "priming, several BH3 peptides", "setting": "Ku812 [3]; imatinib 1 μM, 16 h and 8 h", "result": "increase in priming"}, {"measurement": "cell death", "setting": "Ku812 [4]", "result": "induce cell death"}]}, {"compound": "EQWAREIGAQLRRMADDLNA [PUMA]", "values": [{"measurement": "release of cytochrome c and loss of correlation between cytochrome c and MnSOD channels", "setting": "SuDHL4 cell line", "result": "Release of cytochrome c and loss of correlation"}]}, {"compound": "HQAEVQIARKLQLIADQFHR [BMF]", "values": [{"measurement": "release of cytochrome c and loss of correlation between cytochrome c and MnSOD channels", "setting": "SuDHL4 cell line", "result": "Release of cytochrome c and loss of correlation"}]}, {"compound": "LWAAQRYGRELRRMSDEFEGSFKGL [BAD]", "values": [{"measurement": "release of cytochrome c and loss of correlation between cytochrome c and MnSOD channels", "setting": "SuDHL4 cell line", "result": "Release of cytochrome c and loss of correlation"}]}]}
